What all share (assay): NCI-60 cell line screen, 48 h
In assay [1] the test system is SN12C renal.
Assay [2] concerns SNB-75 CNS.
For assay [3], the system named is ACHN renal.
For assay [4], the system named is NCI-H23 lung.
Assay [5] has as its system COLO 205 colon.
For assay [6], the system named is RXF 393 renal.
The subject of assay [7] is UACC-257 melanoma.
Assay [8] has as its system 786-0 renal.
Assay [9] relates to RPMI-8226 leukemia.
The test system of assay [10] is NCI-H522 lung.

This note sets out measurements from PubChem BioAssay (NCI).

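96-well plates; 48 h exposure; 5 concentrations. Endpoints by linear interpolation between flanking doses. Not reached: highest tested concentration assigned. Abbreviation: GI50, concentration required for 50% inhibition of growth. TGI denotes the concentration required for complete inhibition of growth.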

With `CCN(CC)CCC(=O)Nc1ccc(Cn2nnc3c2C(=O)c2nnn(Cc4ccc(NC(=O)CCN(CC)CC)cc4)c2C3=O)cc1`, the GI50 in assay [1] was 0.184 µM; in [2], 0.314 µM; in assay [3], 12.5 µM; in assay [4], 0.326 µM; in assay [5] it was 0.175 µM; in assay [6], 3.6 µM. The GI50 was 1.01 µM in [7], 8.97 µM in [8], 0.53 µM in assay [9] and 0.18 µM in [10]. The TGI in assay [1] came to 0.385 µM; in assay [2], 0.88 µM; in assay [3], 34.1 µM; in assay [4] it was 1.22 µM; in assay [5], 0.333 µM; in assay [6] it was 15.2 µM. In addition, the TGI in assay [7] was 2.79 µM; in [8], greater than 72.3 µM; in assay [9] it was 3.15 µM; in [10], 0.423 µM.
Take `N#Cc1c2c(c(N=[N+]=[N-])n3c1nc1ccccc13)CCCC2`: the TGI was determined as 4.22 µM in assay [1]; 4.04 µM in assay [2]; 5.46 µM in assay [3]; 6.27 µM in assay [4]; 13.1 µM in assay [5]; 3.19 µM in assay [6]. Further, the TGI in assay [7] worked out at 3.12 µM; in assay [8] it was 3.53 µM; in assay [9] it was 6.85 µM.
Turning to `CN1CC2(CCCCC2)C(O)C12C=CCCC2` (configuration not stated), the TGI in [1], in assay [2], in assay [4], in [5], in assay [6] and in assay [7] was greater than 100 µM each time. The TGI in assay [8], in [9] and in [10] was greater than 100 µM each time.
Consider `COc1ccc2c(c1O)[C@@]13C=C(O)C(=O)C=C1[C@@H](C2)N(C)CC3`, for which the TGI in assay [1], in [2], in [3], in assay [4], in assay [5] and in [6] was greater than 100 µM in each case. The TGI in assay [7], in [8], in assay [9] and in assay [10] was greater than 100 µM each time.
For `COc1ccc(S(=O)(=O)N/N=C/C(=O)O)cc1`, the TGI in [1] was 1140 µM; in assay [2], greater than 1250 µM; in assay [3], 970 µM; in [4] it was 867 µM; in assay [5] it was greater than 1250 µM; in [6], 1150 µM. The TGI was greater than 1250 µM in assay [7], 971 µM in [8], 887 µM in assay [9] and 644 µM in assay [10].
Take `CC(=O)[CH-]C(=O)c1ccccc1.CC(=O)[CH-]C(=O)c1ccccc1.[O]=[U+2]=[O]`: the GI50 in assay [1] is 56 µM; in assay [2], 23 µM; in [3], 33.6 µM; in [4], 46.9 µM; in assay [5] it was 28.4 µM; in [6], 34 µM. In addition, the GI50 in assay [7] was 34.3 µM; in assay [8] it was 40.2 µM; in assay [9] it was 40.7 µM; in [10] it was 65.2 µM. For the same compound, the TGI in assay [1] is greater than 100 µM; in [2] it was 98.7 µM; in [3] it was greater than 100 µM; in [4] it was greater than 100 µM; in assay [5], 78.5 µM; in assay [6] it was greater than 100 µM. The TGI in assay [7], in assay [8], in [9] and in [10] was greater than 100 µM each time.
Take `CC[C@]12C=CCN3CC[C@]4(C(=C(C(=O)OC)C1)Nc1cc(O)ccc14)[C@@H]32`: the GI50 in assay [1] was 15.4 µM; in assay [2] it was 7.38 µM; in assay [3], 18.5 µM; in assay [4], 16.8 µM; in assay [5], 21.8 µM; in assay [6] it was 13.3 µM. Moreover, the GI50 was 25.8 µM in assay [7], 15.7 µM in assay [8], 26.2 µM in [9] and 15.1 µM in [10]. The TGI in [1] came out at 29.7 µM; in assay [2], 40.2 µM; in assay [3], 41.4 µM; in assay [4], 37.7 µM; in assay [5] it was 47.3 µM; in assay [6] it was 28.9 µM. Besides, the TGI in assay [7] is 85.9 µM; in assay [8], 40.8 µM; in [9], 79.8 µM; in assay [10], 55.2 µM.
For `COc1ccc2nc3ccc(OC)cc3c(SCCCN)c2c1`, the GI50 was 10.8 µM in assay [1]; 13 µM in assay [2]; 4.72 µM in [3]; 5.37 µM in assay [4]; 1.42 µM in assay [5]; 2.42 µM in assay [6]. In addition, the GI50 is 15.6 µM in [7], 6.85 µM in assay [8], 1.78 µM in assay [9] and 1.51 µM in assay [10]. The TGI in [1] was found to be 25.5 µM; in assay [2], 27.9 µM; in assay [3], 19.5 µM; in assay [4], 15.4 µM; in assay [5] it was 2.97 µM; in assay [6], 9.85 µM. For the same compound, the TGI in assay [7] was found to be 29.8 µM; in assay [8], 15.2 µM; in assay [9] it was 3.92 µM; in assay [10], 3.09 µM.
For the compound `S=C(Nc1ccccc1)Nc1[nH]c(=S)sc1-c1nc2ccccc2[nH]1`, the TGI was greater than 100 µM in assay [1]; 78.5 µM in [2]; greater than 100 µM in assay [3]; greater than 100 µM in assay [4]; greater than 100 µM in assay [5]; greater than 100 µM in assay [6]. The TGI in assay [7], in assay [8], in assay [9] and in assay [10] was greater than 100 µM in each case.
Consider `O=C(Cc1nc2ccc(C(=O)c3ccccc3)cc2[nH]c1=O)C(=O)Nc1ccccc1[N+](=O)[O-]`, for which the TGI in assay [1], in assay [2], in assay [3], in [4], in assay [6] and in assay [7] was greater than 100 µM in each case. In addition, the TGI in assay [8], in [9] and in assay [10] was greater than 100 µM throughout.
